From PubChem BioAssay (NCI)
Values after ≈ are worked out from the molar mass of the structure shown.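 Tested at 5 concentrations; 48 h exposure; 96-well plates; endpoints linearly interpolated, else capped at highest concentration. Here, GI50 denotes the concentration required for 50% inhibition of growth. TGI: total growth inhibition.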

How the values were obtained:
Assay in all cases: growth of human tumour cells (NCI), 48 h
HOP-92 NSCLC = test system: HOP-92 NSCLC
KM12 colon = test system: KM12 colon
SNB-19 CNS = test system: SNB-19 CNS
MDA-N = test system: MDA-N
EKVX NSCLC = test system: EKVX NSCLC
NCI-H226 lung = test system: NCI-H226 lung

SMILES	TGI (HOP-92 NSCLC)	TGI (KM12 colon)	TGI (SNB-19 CNS)	TGI (MDA-N)	TGI (EKVX NSCLC)	TGI (NCI-H226 lung)	GI50 (KM12 colon)	GI50 (EKVX NSCLC)	GI50 (SNB-19 CNS)
CCOC(=O)c1csc(NC(=O)C(C)N2CCCC2)n1 (centres undefined)	> 100 µM	> 100 µM	> 100 µM	> 100 µM					
O=c1oc2ccccc2c(O)c1Cc1ccc(Cc2c(O)c3ccccc3oc2=O)cc1	> 100 µM			> 100 µM	> 100 µM	> 100 µM			
O=C1NN(C2=NNC3(C(=O)N2)c2ccccc2-c2ccccc23)C(c2ccccc2)=N/C1=C/c1ccc(Cl)cc1		96.2 µg/mL	59.9 µg/mL		108 µg/mL		33.4 µg/mL (≈ 61.3 µM)	38.7 µg/mL (≈ 71 µM)	28.3 µg/mL (≈ 52 µM)
